Common to all, as to format: functional
In test [1] the test system is Mus musculus. The experiment in a line: Reduction in plasma total cholesterol level in LDL receptor/ApoE deficient mouse at […] dosed via gavage route once daily in afternoon for first three days and in morning the last day by FPLC method relative to untreated control. On the set-up: scale not given: the % may be the effect or the level left.
The test system of test [2] is Mus musculus. Kind of test: Reduction in plasma LDL level in LDL receptor/ApoE deficient mouse at 10 umol/kg/day dosed via gavage route once daily in afternoon for first three days and in morning the last day by FPLC method relative to untreated control. On the set-up: scale not given: the % may be the effect or the level left.
For test [3], the system named is Mus musculus. Kind of test: Reduction in plasma cholesterol in LP-remnants in LDL receptor/ApoE deficient mouse at 10 umol/kg/day dosed via gavage route and co-administered with 80 to 100 mg/kg/day mixed with R3 chow diet for 7 days relative to untreated control. Further details: scale not given: the % may be the effect or the level left.
Test [4] has as its system Mus musculus. Kind of test: Effect on plasma HDL level in LDL receptor/ApoE deficient mouse at 10 umol/kg/day dosed via gavage route and co-administered with 80 to 100 mg/kg/day mixed with R3 chow diet for 7 days relative to untreated control.
Test [5] relates to Mus musculus. The experiment in a line: Reduction in plasma total cholesterol level in LDL receptor/ApoE deficient mouse at 10 umol/kg/day dosed via gavage route and co-administered with 80 to 100 mg/kg/day mixed with R3 chow diet for 7 days relative to untreated control. On the set-up: scale not given: the % may be the effect or the level left.
Test [6] deals with Mus musculus. Kind of test: Reduction in plasma cholesterol in LP-remnants plus LDL/HDL ratio level in LDL receptor/ApoE deficient mouse at 10 umol/kg/day dosed via gavage route and co-administered with 80 to 100 mg/kg/day mixed with R3 chow diet for 7 days relative to untreated control. On the set-up: scale not given: the % may be the effect or the level left.
Test [7] concerns Mus musculus. Kind of test: Effect on plasma triglyceride level in LDL receptor/ApoE deficient mouse at 10 umol/kg/day dosed via gavage route once daily in afternoon for first three days and in morning the last day relative to untreated control.
The subject of test [8] is Mus musculus. Kind of test: Reduction in plasma total cholesterol level in LDL receptor/ApoE deficient mouse at 0.625 umol/kg/day dosed via gavage route once daily in afternoon for first three days and in morning the last day by FPLC method relative to untreated control. Further details: scale not given: the % may be the effect or the level left.
For test [9], the system named is Mus musculus. The experiment in a line: Reduction in plasma cholesterol in LP-remnants plus LDL/HDL ratio level in LDL receptor/ApoE deficient mouse at 10 umol/kg/day dosed via gavage route once daily in afternoon for first three days and in morning the last day by FPLC method relative to untreated control. On the set-up: scale not given: the % may be the effect or the level left.

Test [10] concerns Mus musculus. Kind of test: Reduction in plasma LDL level in LDL receptor/ApoE deficient mouse at […] dosed via gavage route once daily in afternoon for first three days and in morning the last day by FPLC method relative to untreated control. Further details: scale not given: the % may be the effect or the level left.
Test [11] relates to Mus musculus. Kind of test: Reduction in plasma cholesterol in LP-remnants in LDL receptor/ApoE deficient mouse at 10 umol/kg/day dosed via gavage route once daily in afternoon for first three days and in morning the last day by FPLC method relative to untreated control. Further details: scale not given: the % may be the effect or the level left.
Test [12] has as its system Mus musculus. The experiment in a line: Effect on plasma triglyceride level in LDL receptor/ApoE deficient mouse at 10 umol/kg/day dosed via gavage route and co-administered with 80 to 100 mg/kg/day mixed with R3 chow diet for 7 days relative to untreated control.
Test [13] deals with Mus musculus. Kind of test: Reduction in plasma total cholesterol level in LDL receptor/ApoE deficient mouse at 10 umol/kg/day dosed via gavage route once daily in afternoon for first three days and in morning the last day by FPLC method relative to untreated control. Further details: scale not given: the % may be the effect or the level left.
For test [14], the system named is Mus musculus. Kind of test: Reduction in plasma LDL level in LDL receptor/ApoE deficient mouse at 10 umol/kg/day dosed via gavage route and co-administered with 80 to 100 mg/kg/day mixed with R3 chow diet for 7 days relative to untreated control. Further details: scale not given: the % may be the effect or the level left.
Test [15] has as its system Mus musculus. Kind of test: Effect on plasma HDL level in LDL receptor/ApoE deficient mouse at 10 umol/kg/day dosed via gavage route once daily in afternoon for first three days and in morning the last day by FPLC method relative to untreated control.
Test [16] concerns Mus musculus. The experiment in a line: Reduction in plasma LDL level in LDL receptor/ApoE deficient mouse at 80 to 100 mg/kg/day mixed with R3 chow diet by FPLC method relative to untreated control. On the set-up: scale not given: the % may be the effect or the level left.
In test [17] the test system is Mus musculus. Kind of test: Effect on plasma HDL level in LDL receptor/ApoE deficient mouse at 80 to 100 mg/kg/day mixed with R3 chow diet by FPLC method relative to untreated control.

Take `CCCC[C@]1(CC)CS(=O)(=O)c2cc(O[C@@H]3O[C@H](C(=O)O)[C@@H](O)[C@H](O)[C@H]3O)ccc2[C@@H](c2ccccc2)N1`: the Activity in test [1] is recorded as 28%; in test [2], 20 - 29%; in test [3], 69%; in test [4], 15%; in test [5] it was 64%; in test [6], 71%. Also, the Activity in test [7] is 7 - 23%; in test [8] it was 9%; in test [9] it was 54 - 55%; in test [10], 14%; in [11], 54 - 62%; in test [12] it was 43%. The Activity in [13] was 35 - 42%; in test [14] it was 64%; in [15] it was 22 - 36%.
`CC(C)c1c(C(=O)Nc2ccccc2)c(-c2ccccc2)c(-c2ccc(F)cc2)n1CC[C@@H](O)C[C@@H](O)CC(=O)[O-].CC(C)c1c(C(=O)Nc2ccccc2)c(-c2ccccc2)c(-c2ccc(F)cc2)n1CC[C@@H](O)C[C@@H](O)CC(=O)[O-].[Ca+2]` [ATORVASTATIN CALCIUM]: the values for the Activity in test [16] and in test [17] were 43% and 22%, respectively.

For the origin of these results see ChEMBL document CHEMBL3881524, “Use of benzothiazepines having activity as inhibitors of ileal bile acid transport for reducing cholesterololemia” (2005).
